Measured values published in ChEMBL document CHEMBL1139218, “Cytotoxic benzo[j]fluoranthene metabolites from Hypoxylon truncatum IFB-18, an endophyte of Artemisia annua” (J Nat Prod, 2007).

Assay: Cytotoxicity against SW1116 cells by MTT colometric method
Format: functional, cell-based
Settings: Homo sapiens, SW 1116

SMILES | IC50
O=C1C[C@H]2[C@@H]3CCC(=O)c4c(O)ccc(c43)[C@]2(O)c2cccc(O)c21 [DALDINONE C] | 49.5 µM
CO[C@H]1C[C@H]2[C@@H]3CCC(=O)c4c(O)ccc(c43)[C@]2(O)c2cccc(O)c21 [DALDINONE D] | 41 µM
O=c1[nH]cc(F)c(=O)[nH]1 [FLUOROURACIL] | 37 µM
